From patent US8048897B2, “Cyclohexane derivative, prodrug thereof and salt thereof, and therapeutic agent containing the same for diabetes” (Chugai Seiyaku Kabushiki Kaisha, priority 2004, dated 2011) come the findings set out here.

As usually defined, the pIC50 is the IC50 on a negative log10 scale, so that one unit is a factor of ten.

pIC50: −log10 of the molar value.

This assay deals with T1, human SGLT2 (Homo sapiens, UniProt P31639).
T1 construct: expressed in transfected cells; host or cells: CHO-K1
T1 sequence (P31639 1-672): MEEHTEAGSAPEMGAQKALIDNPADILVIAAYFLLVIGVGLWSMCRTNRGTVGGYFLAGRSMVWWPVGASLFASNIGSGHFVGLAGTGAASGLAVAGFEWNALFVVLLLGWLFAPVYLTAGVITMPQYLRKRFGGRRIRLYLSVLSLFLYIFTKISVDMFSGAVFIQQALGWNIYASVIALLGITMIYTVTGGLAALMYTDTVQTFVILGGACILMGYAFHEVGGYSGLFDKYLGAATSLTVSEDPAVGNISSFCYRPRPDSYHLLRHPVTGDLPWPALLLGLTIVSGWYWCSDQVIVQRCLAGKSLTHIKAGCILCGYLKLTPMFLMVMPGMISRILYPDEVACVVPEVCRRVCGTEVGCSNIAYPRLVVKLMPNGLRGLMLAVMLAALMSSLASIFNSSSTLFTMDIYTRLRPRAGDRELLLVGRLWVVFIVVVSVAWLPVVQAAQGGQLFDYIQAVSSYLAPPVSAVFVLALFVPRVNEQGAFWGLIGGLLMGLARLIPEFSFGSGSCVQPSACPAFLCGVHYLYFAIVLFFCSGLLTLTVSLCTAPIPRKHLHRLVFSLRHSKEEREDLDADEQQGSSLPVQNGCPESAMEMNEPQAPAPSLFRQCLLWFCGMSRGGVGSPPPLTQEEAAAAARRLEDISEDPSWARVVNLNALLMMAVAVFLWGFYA
Nature of the assay: Methyl-α-D-glucopyranoside intake inhibition activity in human SGLT2 stable expression CHO cells. It is filed as cell-based. As to conditions: methyl-α-D-(U-14C)glucopyranoside intake, 37° C., 45 minutes. How it is done:
Test for Confirming Action of Inhibiting Human Na^+-Glucose Co-Transporters (SGLT1 and SGLT2)
(2) Preparation of Human SGLT2 Expression Vector
PCR was performed by KOD+DNA polymerase by taking a human kidney-derived cDNA library (a product of Clontech) as a template with the use of a synthesized DNA primer to amplify human SGLT2 cDNA. […] From the proliferated E. coli, a plasmid was purified according to the usual way. By taking this plasmid as a template, PCR was performed by KOD+DNA polymerase with the use of a synthetic DNA primer into which restriction enzyme recognition sites had been introduced to amplify human SGLT2 cDNA (a fragment added with Xho I recognition site on the upstream side and a Hind III recognition site on the downstream side). This amplified fragment was subjected to Xho I and Hind III digestion, and the digested fragments were connected to their recognition sites of the expression vector pcDNA 3.1(−) with the use of the Rapid DNA Ligation kit. The connected expression vector was introduced into E. coli competent cells (DH5α) and proliferated in an ampicillin-containing LB medium to obtain a human SGLT2 expression vector according to the usual way.
(3) Preparation of Human SGLT1 Stable Expression Cell and Human SGLT2 Stable Expression Cell
The human SGLT1 expression vector or the human SGLT2 expression vector which was digested with restriction enzyme Pvu I was introduced into CHO-K1 cells with the use of FuGene (a product of Roche Diagonostics). After introduction of the gene, the cells were incubated in a DMEM medium (a product of Gibco) containing penicillin (50 U/mL, a product of Sigma), streptomycin (50 mg/L, a product of Sigma), Geneticin (200 mg/L, a product of Nakalai Tesque) and 20% bovine fetal serum in the presence of 5% CO2 at 37° C. for about three weeks to obtain Genticin-resistant clones. From these clones, cells capable of stably expressing human SGLT1 or the human SGLT2 were selected and obtained by using sodium dependent sugar (methyl-α-D-glucopyranoside) intake activity as an index.
(4) Measurement of Methyl-α-D-glucopyranoside Intake Inhibition Activity
The human SGLT1 stable expression CHO cells or the human SGLT2 stable expression CHO cells was seeded in a 96-well plate to a density of 30,000 to 40,000 cells/well and incubated for four to six days. Next, the medium of the culture plate was removed, and a pretreatment buffer (a buffer containing 140 mM of choline chloride, 2 mM of potassium chloride, 1 mM of calcium chloride, 1 mM of magnesium chloride, 10 mM of 2-[4-(2-hydroxyethyl)-1-piperazinyl]ethanesulfonic acid and tris(hydroxymethyl)-aminomethane and having a pH of 7.4) was added in an amount of 150 μL per well and then left to stand at 37° C. for 20 minutes. The pretreatment buffer was removed and the pretreatment buffer was again added in an amount of 50 μL per well and then left to stand at 37° C. for 20 minutes. To 100 mL of a buffer (a buffer containing 140 mM of sodium chloride, 1 mM of potassium chloride, 1 mM of magnesium chloride, 1 mM of methyl-α-D-glucopyranoside, 10 mM of 2-[4-(2-hydroxyethyl)-1-piperazinyl]ethanesulfonic acid and tris(hydroxymethyl)aminomethane and having a pH of 7.4), there was added and mixed 6.3 mL of methyl-α-D-(U-^14C)glucopyranoside (200 mCi/L, a product of Amersham Pharmacia Biotech) to prepare an intake buffer, and a test compound was dissolved in this intake buffer and the resulting solution was used as a buffer for determining inhibition activity. Further, as a control, a test compound-free intake buffer was used. Furthermore, in order to determine a basic intake in the absence of the test compound and sodium, a basic intake buffer containing 140 mM of choline chloride instead of the sodium chloride was prepared in the same manner and used in the determina-tion. […]
The compound `COc1ccc(Cc2cccc([C@@H]3C[C@H](CO)[C@@H](O)[C@H](O)[C@H]3O)c2)cc1` (single isomer, unassigned) [Example 2] gave a pIC50 of 6.95. Regarding `COc1ccc(Cc2ccccc2O[C@@H]2C[C@H](CO)[C@@H](O)[C@H](O)[C@H]2O)cc1` [Example 1, [2-(4-Methoxybenzyl)phenyl]-5a-carba-β-D-glucopyranoside], the pIC50 was 7.21. With `OC[C@H]1C[C@@H](Oc2ccccc2Cc2ccc(C3CC3)cc2)[C@H](O)[C@@H](O)[C@@H]1O` [Example 8, [2-(4-Cyclopropylbenzyl)phenyl]-5a-carba-β-D-glucopyranoside] the figure was 8.15. For `CSc1ccc(Cc2ccccc2O[C@@H]2C[C@H](CO)[C@@H](O)[C@H](O)[C@H]2O)cc1` [Example 11, [2-(4-Methylsulfanylbenzyl)phenyl]-5a-carba-β-D-gluco-pyranoside] the value was 7.85. With `COc1ccc(Cc2c(F)cccc2O[C@@H]2C[C@H](CO)[C@@H](O)[C@H](O)[C@H]2O)cc1` [Example 12], the pIC50 is 7.74. With `CCc1ccc(Cc2ccccc2O[C@@H]2C[C@H](CO)[C@@H](O)[C@H](O)[C@H]2O)cc1` [Example 25, [2-(4-Ethylbenzyl)phenyl]-5a-carba-β-D-glucopyranoside] the figure was 7.51; with `OC[C@H]1C[C@@H](Oc2cnccc2Cc2ccc(C3CC3)cc2)[C@H](O)[C@@H](O)[C@@H]1O` [Example 42, [4-(4-Cyclopropylbenzyl)pyridin-3-yl]-5a-carba-β-D-gluco-pyranoside], 8.11; with `C=Cc1ccc(Cc2ccccc2O[C@@H]2C[C@H](CO)[C@@H](O)[C@H](O)[C@H]2O)cc1` [Example 44, [2-(4-Vinylbenzyl)phenyl]-5a-carba-β-D-glucopyranoside], 7.80. For `COc1ccc(Cc2ccc(C)cc2O[C@@H]2C[C@H](CO)[C@@H](O)[C@H](O)[C@H]2O)cc1` [Example 54, [2-(4-Methoxybenzyl)-5-methylphenyl]-5a-carba-β-D-gluco-pyranoside] the value was 7.85; for `CCc1ccc(Cc2sccc2O[C@@H]2C[C@H](CO)[C@@H](O)[C@H](O)[C@H]2O)cc1` [Example 55, [2-(4-Ethylbenzyl)thiophen-3-yl]-5a-carba-β-D-gluco-pyranoside], 7.77. With `Cc1cc(O[C@@H]2C[C@H](CO)[C@@H](O)[C@H](O)[C@H]2O)c(Cc2ccc(C3CC3)cc2)s1` [Example 59, [2-(4-Cyclopropylbenzyl)-5-methylthiophen-3-yl]-5a-carba-β-D-glucopyranoside] the figure was 8.05; with `OCC1=C[C@@H](Oc2ccccc2Cc2ccc(C3CC3)cc2)[C@H](O)[C@@H](O)[C@@H]1O` [Example 62, (1R,2S,3R,6R)-6-[2-(4-Cyclopropylbenzyl)phenoxy]-4-(hydroxymethyl)cyclohex-4-ene-1,2,3-triol], 8.15. `CCc1ccc(Cc2cccc(C3=C[C@H](CO)[C@@H](O)[C@H](O)[C@H]3O)c2)cc1` [Example 64, (1R,2S,3S,6R)-4-[3-(4-Ethylbenzyl)phenyl]-6-(hydroxy-methyl)cyclohex-4-ene-1,2,3-triol] showed a pIC50 of 8.18. With `CCOc1ccc(Cc2ccc(CC)cc2)cc1[C@@H]1C[C@H](CO)[C@@H](O)[C@H](O)[C@H]1O` [Example 68, (1R,2R,3S,4S,6R)-4-[2-Ethoxy-5-(4-ethylbenzyl)phenyl]-6-(hydroxymethyl)cyclohexane-1,2,3-triol] the figure was 7.74. For the compound `CCc1ccc(Cc2cc([C@]3(O)C[C@H](CO)[C@@H](O)[C@H](O)[C@H]3O)c(OC)cc2OC)cc1` [Example 69, (1R,2R,3S,4R,5R)-1-[5-(4-Ethylbenzyl)-2,4-dimethoxy-phenyl]-5-(hydroxymethyl)cyclohexane-1,2,3,4-tetraol], the pIC50 is 8.29.

Compound `CCc1ccc(Cc2cc([C@@H]3C[C@H](CO)[C@@H](O)[C@H](O)[C@H]3O)c(OC)cc2OC)cc1` [Example 70, (1R,2R,3S,4S,6R)-4-[5-(4-Ethylbenzyl)-2,4-dimethoxy-phenyl]-6-(hydroxymethyl)cyclohexane-1,2,3-triol] had a pIC50 of 8.13.

With `CCc1ccc(Cc2ccc(OC)c([C@]3(O)C[C@H](CO)[C@@H](O)[C@H](O)[C@H]3O)c2)cc1` [Example 73, (1R,2R,3S,4R,5R)-1-[5-(4-Ethylbenzyl)-2-methoxyphenyl]-5-(hydroxymethyl)cyclohexane-1,2,3,4-tetraol], the pIC50 was 7.96.
